# What was measured:
# PTTG1 [1] = assay: PTTG1 expression in SW-13 ACC cell line, relative to beta-actin; format: cell-based
# Text: FIG. 6 depicts the effect of vorinostat on the ACC cell line SW-13.
# PTTG1 [2] = assay: PTTG1 expression in H259R ACC cell line, relative to beta-actin; format: cell-based
# Text: FIG. 7 depicts the effect of vorinostat on the ACC cell line H259R.
# adrenocortical carcinoma = details: ACC patients; cited from earlier work
SMILES,effect on PTTG1 expression (PTTG1 [1]),effect on PTTG1 expression (PTTG1 [2]),patients showing a response (adrenocortical carcinoma),side effects (adrenocortical carcinoma)
O=C(CCCCCCC(=O)Nc1ccccc1)NO [Vorinostat],reduces PTTG1 expression,reduces PTTG1 expression,,
Clc1ccc(C(c2ccccc2Cl)C(Cl)Cl)cc1 (stereo not shown) [mitotane],,,approximately 22%,"severe, dose limiting side effects"

# Reference: patent US10066270B2, “Methods and kits used in classifying adrenocortical carcinoma” (THE TRANSLATIONAL GENOMICS RESEARCH INSTITUTE, priority 2010, dated 2018)
